Structures are written as SMILES.

The values below come from ChEMBL document CHEMBL3259589, “Synthesis and radical-scavenging activity of a dimethyl catechin analogue” (Bioorg Med Chem Lett, 2014).

A short description of this assay: Antioxidant activity assessed as galvinoxyl free radical scavenging activity measured as second order rate constant by spectrophotometry. Type of assay: functional.

On to `Oc1cc(O)c2c(c1)O[C@H](c1ccc(O)c(O)c1)[C@@H](O)C2`, for which the K (10'1mol/dm3/s) worked out at 3.87.
